According to the supplement of paper PMC10307832:

Columns and labels:
Assay in all cases: relative viability (nuclei count vs DMSO), 5 days (fraction); higher = more cells survive
DM3189 + Bortezomib = compound: C1CN(CCN1)C2=CC=C(C=C2)C3=CN4C(=C(C=N4)C5=CC=NC6=CC=CC=C56)N=C3 [DM3189] + CC(C)C[C@H](NC(=O)[C@H](Cc1ccccc1)NC(=O)c1cnccn1)B(O)O [Bortezomib] (partner 0.002 µM)
Outline: (§1)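 Cells from lung cancer lines were seeded into 1536-well plates and, one day later, dosed by pin tool. Treatments were either a single drug or a fixed dose of an anchor drug with five library-drug doses (not always all listed) in √10 steps. After 5 days, nuclei were stained in a one-step fixation (final 0.05% Triton X-100, 1% formaldehyde, 1 ug/ml Hoechst) and counted on 4× images, and relative viability is the treated-to-vehicle nuclei ratio, as the median of duplicate plates.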

DM3189 + OSI-027 = compound: C1CN(CCN1)C2=CC=C(C=C2)C3=CN4C(=C(C=N4)C5=CC=NC6=CC=CC=C56)N=C3 [DM3189] + COc1cccc2cc(-c3nc([C@H]4CC[C@H](C(=O)O)CC4)n4ncnc(N)c34)[nH]c12 [OSI-027] (partner 0.5 µM)
Outline: as §1

DM3189 + Crizotinib = compound: C1CN(CCN1)C2=CC=C(C=C2)C3=CN4C(=C(C=N4)C5=CC=NC6=CC=CC=C56)N=C3 [DM3189] + C[C@@H](Oc1cc(-c2cnn(C3CCNCC3)c2)cnc1N)c1c(Cl)ccc(F)c1Cl [Crizotinib] (partner 1 µM)
Outline: as §1

DM3189 + Pemetrexed = compound: C1CN(CCN1)C2=CC=C(C=C2)C3=CN4C(=C(C=N4)C5=CC=NC6=CC=CC=C56)N=C3 [DM3189] + Nc1nc2[nH]cc(CCc3ccc(C(=O)N[C@@H](CCC(=O)O)C(=O)O)cc3)c2c(=O)[nH]1 [Pemetrexed] (partner 0.2 µM)
Outline: as §1

DM3189 + Decitabine = compound: C1CN(CCN1)C2=CC=C(C=C2)C3=CN4C(=C(C=N4)C5=CC=NC6=CC=CC=C56)N=C3 [DM3189] + Nc1ncn([C@H]2C[C@H](O)[C@@H](CO)O2)c(=O)n1 [Decitabine] (partner 2 µM)
Outline: as §1

Cell Line	relative viability (DM3189 + Bortezomib; first compound 0.08 µM)	relative viability (DM3189 + Bortezomib; first compound 0.253 µM)	relative viability (DM3189 + Bortezomib; first compound 0.8 µM)	relative viability (DM3189 + Bortezomib; first compound 2.53 µM)	relative viability (DM3189 + OSI-027; first compound 0.08 µM)	relative viability (DM3189 + OSI-027; first compound 0.253 µM)	relative viability (DM3189 + OSI-027; first compound 0.8 µM)	relative viability (DM3189 + OSI-027; first compound 2.53 µM)	relative viability (DM3189 + Crizotinib; first compound 0.08 µM)	relative viability (DM3189 + Crizotinib; first compound 0.253 µM)	relative viability (DM3189 + Crizotinib; first compound 0.8 µM)	relative viability (DM3189 + Crizotinib; first compound 2.53 µM)	relative viability (DM3189 + Pemetrexed; first compound 0.08 µM)	relative viability (DM3189 + Pemetrexed; first compound 0.253 µM)	relative viability (DM3189 + Pemetrexed; first compound 0.8 µM)	relative viability (DM3189 + Pemetrexed; first compound 2.53 µM)	relative viability (DM3189 + Decitabine; first compound 0.08 µM)	relative viability (DM3189 + Decitabine; first compound 0.253 µM)	relative viability (DM3189 + Decitabine; first compound 0.8 µM)	relative viability (DM3189 + Decitabine; first compound 2.53 µM)
LOU-NH91	0.487	0.529	0.463	0.443	0.869	0.719	0.681	0.801	0.754	0.709	0.718	0.727	0.375	0.407	0.331	0.368	0.854	0.799	0.739	0.863
LU99A	1.23	1.01	–	1.04	0.293	0.299	–	0.308	0.573	0.527	–	0.509	0.185	0.233	–	0.161	1.09	0.837	–	0.777
LXF-289	1	0.929	0.988	1.11	1.01	0.747	0.746	0.891	0.796	0.793	0.781	0.947	0.932	0.986	0.897	0.917	0.391	0.389	0.438	0.421
NCI-H23	1.18	0.825	0.928	1.02	0.664	0.594	0.457	0.577	0.545	0.491	0.442	0.579	0.759	0.635	0.641	0.676	0.308	0.304	0.284	0.314
NCI-H322M	1.25	1.38	1.19	1.23	0.622	0.596	0.541	0.506	1.06	0.848	0.872	0.924	0.64	0.582	0.557	0.501	0.628	0.683	0.767	0.696
NCI-H441	0.656	0.604	0.447	0.645	0.747	0.602	0.451	0.486	0.951	0.751	0.737	0.924	0.3	0.243	0.295	0.287	0.307	0.227	0.216	0.219
NCI-H460	1.19	1.07	1.06	0.255	1.12	0.72	0.598	0.549	0.839	0.939	0.96	1.02	0.0522	0.0522	0.0641	0.0646	0.449	0.468	0.438	0.555
NCI-H520	0.503	0.345	0.429	0.368	0.281	0.232	0.237	0.232	0.752	0.748	0.485	0.303	0.603	0.492	0.49	0.296	0.534	0.399	0.521	0.336
